Results from patent US9169269B2, “Water-soluble solid pharmaceutical inclusion complexes and their aqueous solutions for oral, ophthalmic, topical or parenteral use containing a macrolide and certain cyclodextrins” (EUTICALS SPA, priority 2010, dated 2015).

Tests used:
Type in all cases: physicochemical
[1] = Stability of amorphous and crystalline Rapamycin at 60° C. (HPLC chromatographic purity); settings: for decrease of chromatographic purity: after 408 hours (17 days)
Protocol: For the HPLC determination of chromatographic purity of Rapamycin: Column: Thermo BDS Hypersil C18; 3 μm (100×4.6 mm). Mobile Phase composition: isocratic elution • Component A: 50% acetonitrile • Component B: 50% ammonium acetate buffer pH 5.8 (concentration 0.8 g/l of ammonium acetate; the final pH value was brought to a final value of 5.8 with glacial acetic acid)
Flow rate: 1.0 ml/min. Column temperature: 55° C. Volume of injection: 100 μl.
Sample solution: weight 25 mg of Rapamycin and dissolve in 100 ml of acetonitrile/water 1/1 v/v (final concentration 0.25 mg/ml). UV detector: 278 nm

[2] = Stability of Everolimus gamma CD complex versus amorphous Everolimus (powder) at 60° C., total impurities (HPLC); settings: powder 60° C.
Protocol: For the HPLC determination of the chromatographic purity of Temsirolimus and Everolimus: Column: Zorbax SB-C18; 3.5 μm (75×4.6 mm), Precolumn: Symmetry Shield RP18; 5 μm (20×3.9 mm).
Mobile Phase composition: • Component A: 900 ml of water, 100 ml of acetonitrile and 50 μl of 50% aqueous acetic acid • Component B: 1000 ml of acetonitrile and 50 μl of 50% aqueous acetic acid Gradient elution: […]
Flow rate: 1 ml/min. Column temperature: 60° C. Volume of injection: 20 μl.
Sample preparation: solution of 0.5 mg/ml in acetonitrile. Detector UV: 278 nm
The stability data on Everolimus complex with CD prepared according each of the examples 2 and 3 are reported on FIG. 3 and on Table 7.
In particular, in FIG. 3, are reported the sum of the related by products originated by degradation (HPLC data in area %) during a stability tests performed on the powder at 60° C. for 96 hours.

[3] = Preliminary stability tests on micronized Rapamycin and in solution (ethanol); settings: finely micronized (10^−5 microns) and in solution (ethanol), within few hours
From the text: In order to proceed with formulative studies we have performed preliminary stability tests on micronized Rapamycin (10^−5 microns) and in solution (ethanol).

chromatographic purity (HPLC data) ([1]; 0 hours) | chromatographic purity (HPLC data) ([1]; 20 hours) | chromatographic purity (HPLC data) ([1]; 96 hours) | chromatographic purity (HPLC data) ([1]; 168 hours) | chromatographic purity (HPLC data) ([1]; 408 hours) | decrease of chromatographic purity [1] | HPLC area % of total impurities ([2]; 0 hours) | HPLC area % of total impurities ([2]; 24 hours) | HPLC area % of total impurities ([2]; 48 hours) | HPLC area % of total impurities ([2]; 72 hours) | HPLC area % of total impurities ([2]; 96 hours) | HPLC area % of total impurities ([2]; 168 hours) | decrease in the assay value [3] | Compound
99.10 area % | 99.10 area % | 99.10 area % | 99.00 area % | 99.00 area % | the same chromatographic purity |  |  |  |  |  |  |  | CO[C@H]1C[C@@H]2CC[C@@H](C)[C@@](O)(O2)C(=O)C(=O)N2CCCC[C@H]2C(=O)O[C@H]([C@H](C)C[C@@H]2CC[C@@H](O)[C@H](OC)C2)CC(=O)[C@H](C)/C=C(\C)[C@@H](O)[C@@H](OC)C(=O)[C@H](C)C[C@H](C)/C=C/C=C/C=C/1C [Crystalline Rapamycin, Rapamycin]
 |  |  |  |  |  | 1.5 area % | 2.44 area % | 4.52 area % | 7.1 area % | 9.2 area % | 14.1 area % |  | CO[C@H]1C[C@@H]2CC[C@@H](C)[C@@](O)(O2)C(=O)C(=O)N2CCCC[C@H]2C(=O)O[C@H]([C@H](C)C[C@@H]2CC[C@@H](OCCO)[C@H](OC)C2)CC(=O)[C@H](C)/C=C(\C)[C@@H](O)[C@@H](OC)C(=O)[C@H](C)C[C@H](C)/C=C/C=C/C=C/1C [Amorphous Everolimus, Everolimus]
 |  |  |  |  |  |  |  |  |  |  |  | −10% | CO[C@H]1C[C@@H]2CC[C@@H](C)[C@@](O)(O2)C(=O)C(=O)N2CCCC[C@H]2C(=O)O[C@H]([C@H](C)C[C@@H]2CC[C@@H](O)[C@H](OC)C2)CC(=O)[C@H](C)/C=C(\C)[C@@H](O)[C@@H](OC)C(=O)[C@H](C)C[C@H](C)/C=C/C=C/C=C/1C [Rapamycin]
98.90 area % | 93.00 area % | 90.00 area % | 88.00 area % | 84.90 area % | −14% |  |  |  |  |  |  |  | CO[C@H]1C[C@@H]2CC[C@@H](C)[C@@](O)(O2)C(=O)C(=O)N2CCCC[C@H]2C(=O)O[C@H]([C@H](C)C[C@@H]2CC[C@@H](O)[C@H](OC)C2)CC(=O)[C@H](C)/C=C(\C)[C@@H](O)[C@@H](OC)C(=O)[C@H](C)C[C@H](C)/C=C/C=C/C=C/1C [Amorphous Rapamycin, Rapamycin]
